The values that follow come from US20230278983A1, “INDOLE DERIVATIVES AND USES THEREOF FOR TREATING A CANCER” (Universite Claude Bernard Lyon 1, priority 2020, published 2023).

Read-outs that look alike come from different tables or passages of the source.

The assay addresses CK2 (Homo sapiens (Human), UniProt P68400). Put plainly: Radiometric CK2 kinase assay. Type of assay: biochemical. The conditions noted are these: for inhibition at 1 µM: compound at 1 μM; for inhibition at 0.1 µM: compound at 0.10 μM.
[1] abbreviates: inhibition of CK2 activity, ATP 10 μM.

Sequence of CK2 (P68400 whole entry): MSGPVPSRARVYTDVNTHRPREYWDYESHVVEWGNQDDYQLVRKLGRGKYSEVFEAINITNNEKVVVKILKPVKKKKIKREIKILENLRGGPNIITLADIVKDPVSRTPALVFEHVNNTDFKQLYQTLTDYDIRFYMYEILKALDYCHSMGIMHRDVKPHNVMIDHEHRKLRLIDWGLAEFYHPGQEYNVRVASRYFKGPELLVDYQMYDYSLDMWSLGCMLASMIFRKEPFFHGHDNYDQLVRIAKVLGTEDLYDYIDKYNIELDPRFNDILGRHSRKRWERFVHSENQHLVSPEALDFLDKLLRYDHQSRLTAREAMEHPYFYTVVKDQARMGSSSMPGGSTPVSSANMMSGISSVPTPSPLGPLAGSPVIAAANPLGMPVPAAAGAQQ

What is called inhibition is the drop in the measured response relative to a control, in per cent. Read a high inhibition as strong suppression. For `CCc1ccc(S(=O)(=O)NCCN2CCC(Cn3cc(-c4c(C(=O)NCCC(C)C)[nH]c5ccc(F)cc45)nn3)CC2)cc1` [AB670, 3-(1-((1-(2-((4-Ethylphenyl)sulfonamido)ethyl)piperidin-4-yl)methyl)-1H-1,2,3-triazol-4-yl)-5-fluoro-N-isopentyl-1H-indole-2-carboxamide], where the note is “ATP 10 μM”, the inhibition at 1 µM amounted to 14%. A word on the IC50: it is the point on the concentration scale where inhibition reaches its midpoint. The low end stands for greater potency, the high end for weaker potency. On to `CCC(=O)c1[nH]c2ccc(F)cc2c1-c1cn(CC2CCN(CCNS(=O)(=O)c3ccc(-c4c(O)cccc4F)cc3)CC2)nn1` [AB1415, 2′-fluoro-N-(2-(4-((4-(5-fluoro-2-propionyl-1H-indol-3-yl)-1H-1,2,3-triazol-1-yl)methyl)piperidin-1-yl)ethyl)-6′-hydroxy-[1,1′-biphenyl]-4-sulfonamide], for which the midpoint of inhibition, the IC50, lay at 50 nM. Same read-out and setting: the same measure for `CC(=O)c1[nH]c2ccc(F)cc2c1-c1cn(CC2CCN(CCNS(=O)(=O)c3ccc(CC(C)C)cc3)CC2)nn1` [AB1135, N-(2-(4-((4-(2-acetyl-5-fluoro-1H-indol-3-yl)-1H-1,2,3-triazol-1-yl)methyl)piperidin-1-yl)ethyl)-4-isobutylbenzenesulfonamide]: 48 nM; for `CC(C)COC(=O)c1[nH]c2ccc(Cl)cc2c1-c1cn(CC2CCN(CCNS(=O)(=O)c3ccc4ccccc4c3)CC2)nn1` [AB599, Isobutyl 5-chloro-3-(1-((1-(2-(naphthalene-2-sulfonamido)ethyl)piperidin-4-yl)methyl)-1H-1,2,3-triazol-4-yl)-1H-indole-2-carboxylate]: 3200 nM.

Take `O=C(c1[nH]c2ccc(F)cc2c1-c1cn(CC2CCN(CCNS(=O)(=O)c3ccc(-c4cccnc4Cl)cc3)CC2)nn1)C1CC1` [AB1232, 4-(2-chloropyridin-3-yl)-N-(2-(4-((4-(2-(cyclopropanecarbonyl)-5-fluoro-1H-indol-3-yl)-1H-1,2,3-triazol-1-yl)methyl)piperidin-1-yl)ethyl)benzenesulfonamide]: the inhibition at 0.05 µM (compound at 0.05 μM, ATP 10 μM) amounted to 16%. Under “ATP 10 μM”, `CC(=O)c1[nH]c2ccc(F)cc2c1-c1cn(CC2CCN(CCNS(=O)(=O)c3ccc(-c4ccc(F)cc4Cl)cc3)CC2)nn1` [AB1453, N-(2-(4-((4-(2-acetyl-5-fluoro-1H-indol-3-yl)-1H-1,2,3-triazol-1-yl)methyl)piperidin-1-yl)ethyl)-2′-chloro-4′-fluoro-[1,1′-biphenyl]-4-sulfonamide] returned an inhibition at 0.1 µM of 40%. Take `CC(C)COC(=O)c1[nH]c2ccc(F)cc2c1-c1cn(CC2CCN(CCNS(=O)(=O)c3ccc(-c4ccccc4CN4CCOCC4)cc3)CC2)nn1` [AB1075]: 79 nM corresponded to half-maximal inhibition under setting [1] (IC50). `O=S(=O)(NCCN1CCC(Cn2cc(-c3c[nH]c4ccccc34)nn2)CC1)c1ccccc1` [AB150, N-(2-(4-((4-(1H-Indol-3-yl)-1H-1,2,3-triazol-1-yl)methyl)piperidin-1-yl)ethyl)benzenesulfonamide] returned an IC50 of 48500 nM. On the same count and under the same terms, the value for `O=S(=O)(NCCN1CCC(Cn2cc(-c3c[nH]c4ccc(F)cc34)nn2)CC1)c1ccc(Cl)cc1` [AB153, 4-Chloro-N-(2-(4-((4-(5-fluoro-1H-indol-3-yl)-1H-1,2,3-triazol-1-yl)methyl)piperidin-1-yl)ethyl)benzenesulfonamide] was 15100 nM; that for `CCOC(=O)c1[nH]c2ccc(F)cc2c1-c1cn(CC2CCN(CCNS(=O)(=O)c3ccc4ccccc4c3)CC2)nn1` [AB536, Ethyl 5-fluoro-3-(1-((1-(2-(naphthalene-2-sulfonamido)ethyl)piperidin-4-yl)methyl)-1H-1,2,3-triazol-4-yl)-1H-indole-2-carboxylate] was 800 nM; that for `CC(C)COC(=O)c1[nH]c2ccc(F)cc2c1-c1cn(CC2CCN(CCNS(=O)(=O)c3ccc(C(F)(F)F)cc3)CC2)nn1` [AB600, Isobutyl 5-fluoro-3-(1-((1-(2-((4-(trifluoromethyl)phenyl)sulfonamido)ethyl)piperidin-4-yl)methyl)-1H-1,2,3-triazol-4-yl)-1H-indole-2-carboxylate] was 350 nM. In turn, `CC(C)C(=O)c1[nH]c2ccc(F)cc2c1-c1cn(CC2CCN(CCNS(=O)(=O)c3ccc(-c4cccnc4Cl)cc3)CC2)nn1` [AB1282, 4-(2-chloropyridin-3-yl)-N-(2-(4-((4-(5-fluoro-2-isobutyryl-1H-indol-3-yl)-1H-1,2,3-triazol-1-yl)methyl)piperidin-1-yl)ethyl)benzenesulfonamide] showed an inhibition at 0.1 µM (ATP 10 μM) of 15%.

In turn, `CC(C)COC(=O)c1[nH]c2ccc(F)cc2c1-c1cn(CC2CCN(Cc3ccc(Oc4ccccc4)c(Cl)c3)CC2)nn1` [AB691, Isobutyl 3-(1-((1-(3-chloro-4-phenoxybenzyl)piperidin-4-yl)methyl)-1H-1,2,3-triazol-4-yl)-5-fluoro-1H-indole-2-carboxylate] returned an inhibition at 1 µM (ATP 10 μM) of 3%.

Regarding `CC(=O)c1[nH]c2ccc(F)cc2c1-c1cn(CC2CN(CCNS(=O)(=O)c3ccc(CC(C)C)cc3)C2)nn1` [AB1404, N-(2-(3-((4-(2-acetyl-5-fluoro-1H-indol-3-yl)-1H-1,2,3-triazol-1-yl)methyl)azetidin-1-yl)ethyl)-4-isobutylbenzenesulfonamide], 0.1 µM produced 20% inhibition (ATP 10 μM). Regarding `CCOC(=O)c1[nH]c2ccc(Cl)cc2c1-c1cn(CC2CCN(CCNS(=O)(=O)c3ccc(C(F)(F)F)cc3)CC2)nn1` [AB550, Ethyl 5-chloro-3-(1-((1-(2-((4-(trifluoromethyl)phenyl)sulfonamido)ethyl)piperidin-4-yl)methyl)-1H-1,2,3-triazol-4-yl)-1H-indole-2-carboxylate], the IC50 was found to be 2240 nM. On the same count and under the same terms, the value for `CCOC(=O)c1[nH]c2ccc(F)cc2c1-c1cn(CC2CCN(CCNS(=O)(=O)c3ccc(C(F)(F)F)cc3)CC2)nn1` [AB529, Ethyl 5-fluoro-3-(1-((1-(2-((4-(trifluoromethyl)phenyl)sulfonamido)ethyl)piperidin-4-yl)methyl)-1H-1,2,3-triazol-4-yl)-1H-indole-2-carboxylate] was 700 nM. For `CC(C)COC(=O)c1[nH]c2ccc(F)cc2c1-c1cn(CC2CCN(C(=O)c3ccc(-c4cccc5[nH]ccc45)c(C(F)(F)F)c3)CC2)nn1` [AB756, Isobutyl 3-(1-((1-(4-(1H-indol-4-yl)-3-(trifluoromethyl)benzoyl)piperidin-4-yl)methyl)-1H-1,2,3-triazol-4-yl)-5-fluoro-1H-indole-2-carboxylate], testing at 1 µM (ATP 10 μM) gave an inhibition of 19%.

For the molecule `COc1ccccc1-c1ccc(CN2CCC(Cn3cc(-c4c(C(=O)OCC(C)C)[nH]c5ccc(F)cc45)nn3)CC2)cc1Cl` [AB689, Isobutyl 3-(1-((1-((2-chloro-2′-methoxy-[1,1′-biphenyl]-4-yl)methyl)piperidin-4-yl)methyl)-1H-1,2,3-triazol-4-yl)-5-fluoro-1H-indole-2-carboxylate], the inhibition at 1 µM (ATP 10 μM) is 6%. In turn, `CC(C)COC(=O)c1[nH]c2ccc(F)cc2c1-c1cn(CC2CCN(CCNS(=O)(=O)c3ccc(-c4cn[nH]c4)cc3)CC2)nn1` [AB1032, isobutyl 3-(1-((1-(2-((4-(1H-pyrazol-4-yl)phenyl)sulfonamido)ethyl)piperidin-4-yl)methyl)-1H-1,2,3-triazol-4-yl)-5-fluoro-1H-indole-2-carboxylate] showed a half-maximal inhibitory concentration (IC50) of 200 nM.

`CC(=O)c1[nH]c2ccc(F)cc2c1-c1cn(C[C@H]2CCCN(CCNS(=O)(=O)c3ccc(CC(C)C)cc3)C2)nn1` [AB1403] displayed an inhibition at 0.1 µM (ATP 10 μM) of 9%. Under setting [1], `CC(=O)c1[nH]c2ccc(F)cc2c1-c1cn(CC2CCN(CCNS(=O)(=O)N3CCC(c4c(F)cccc4F)CC3)CC2)nn1` [AB1316, N-(2-(4-((4-(2-acetyl-5-fluoro-1H-indol-3-yl)-1H-1,2,3-triazol-1-yl)methyl)piperidin-1-yl)ethyl)-4-(2,6-difluorophenyl)piperidine-1-sulfonamide] displayed an IC50 of 280 nM.

Where the note is “ATP 10 μM”, `CC(C)CC(=O)c1[nH]c2ccc(F)cc2c1-c1cn(CC2CCN(CCNS(=O)(=O)c3ccc(-c4cccnc4Cl)cc3)CC2)nn1` [AB1284, 4-(2-chloropyridin-3-yl)-N-(2-(4-((4-(5-fluoro-2-(3-methylbutanoyl)-1H-indol-3-yl)-1H-1,2,3-triazol-1-yl)methyl)piperidin-1-yl)ethyl)benzenesulfonamide] registered an inhibition at 0.1 µM of 15%. Turning to `CC(C)COC(=O)c1[nH]c2ccc(F)cc2c1-c1cn(CC2CCN(CCNS(=O)(=O)c3ccc(C(C)C)cc3)CC2)nn1` [AB603, Isobutyl 5-fluoro-3-(1-((1-(2-((4-isopropylphenyl)sulfonamido)ethyl)piperidin-4-yl)methyl)-1H-1,2,3-triazol-4-yl)-1H-indole-2-carboxylate], the “Competition with peptide substrate” value is “not competitive with the peptide substrate” and the IC50 was determined as 150 nM. The “Inhibition of CK2a versus CK2 holoenzyme” value (CK2a compared with CK2 holoenzyme) was “not inhibited to the same extent”. Molecule `CC(C)COC(=O)c1[nH]c2ccc(F)cc2c1-c1cn(CC2CCN(CCNS(=O)(=O)Cc3cccc(Br)c3)CC2)nn1` [AB1031, isobutyl 3-(1-((1-(2-(((3-bromophenyl)methyl)sulfonamido)ethyl)piperidin-4-yl)methyl)-1H-1,2,3-triazol-4-yl)-5-fluoro-1H-indole-2-carboxylate] showed a 50% inhibitory concentration (IC50) under setting [1] of 150 nM. Take `CC(=O)c1[nH]c2ccc(F)cc2c1-c1cn(CC2CCN(CCNS(=O)(=O)c3ccc(-c4c(C)cccc4C#N)cc3)CC2)nn1` [AB1452, N-(2-(4-((4-(2-acetyl-5-fluoro-1H-indol-3-yl)-1H-1,2,3-triazol-1-yl)methyl)piperidin-1-yl)ethyl)-2′-cyano-6′-methyl-[1,1′-biphenyl]-4-sulfonamide]: 0.1 µM produced 36% inhibition (ATP 10 μM). As to `O=C(c1[nH]c2ccc(F)cc2c1-c1cn(CC2CCN(CCNS(=O)(=O)Cc3ccc(C(F)(F)F)cc3)CC2)nn1)C1CC1` [AB1305, N-(2-(4-((4-(2-(cyclopropanecarbonyl)-5-fluoro-1H-indol-3-yl)-1H-1,2,3-triazol-1-yl)methyl)piperidin-1-yl)ethyl)-1-(4-(trifluoromethyl)phenyl)methanesulfonamide], inhibition under setting [1] was half-maximal at 480 nM (IC50).

In the case of `CC(C)COC(=O)c1[nH]c2ccc(F)cc2c1-c1cn(CC2CCN(S(=O)(=O)c3ccc(C(C)(C)C)cc3)CC2)nn1` [AB938], testing at 1 µM (ATP 10 μM) gave an inhibition of 5%.
